Experimental data published in PMC10348910, “Epigenetic reprogramming of cell cycle genes by ACK1 promotes breast cancer resistance to CDK4/6 inhibitor” (Oncogene, 2023).

Legend:
MCF7 xenografts = assay: MCF7 xenograft in mammary fat pad; type: in vivo, female SCID mice; conditions: orally 36 mg/Kg or subcutaneously 24 mg/Kg
Protocol: Fig. 6 (R)-9b inhibits breast cancer xenograft tumor growth in vivo. A 2 × 10^6 Cal-148 cells were injected in the 4th inguinal mammary fat pad of female SCID mice. Once the tumors were palpable, the mice were treated subcutaneously with either vehicle (Captisol; n = 8) or (R)-9b at 24 mg/Kg (n = 8) five times a week, for 4 weeks. The tumor volumes were measured twice a week. B, C The tumors were harvested and photographed, and the weights were recorded. D RNA was prepared from the tumors, followed by qRT-PCR to determine the levels of CCNB1, CCNB2 and CDC20 mRNA (n = 3 each). E and F 2 × 10^6 MCF7 cells were injected in the 4th inguinal mammary fat pad of female SCID mice with continuous supplementation of estrogen. Once the tumors were palpable, the mice were treated with vehicle (Captisol; n = 7), (R)-9b at 24 mg/Kg subcutaneously (n = 8), or orally with (R)-9b at 36 mg/Kg (n = 8), five times a week, for 4 weeks. The tumors were harvested, their weights were recorded and photographed. G Tumor lysates were subjected to immunoblotting using pACK1, CCNB1, CCNB2, CDC20 and Actin antibodies (n = 3 each). H RNA was prepared from the tumors, followed by qRT-PCR to determine the levels of CCNB1, CCNB2 and CDC20 mRNA (n = 3 each). Data are represented as the mean ± SEM. *p < 0.05; **p < 0.01; ***p < 0.001. For (C) and (D), unpaired two-tailed Student’s t test, and for (E) and (H), one way ANOVA was performed.
In addition, effect of (R)-9b was assessed in ER^+/PR^+ breast cancer xenografts. Briefly, MCF7 cells were implanted in mammary fat pad of female SCID mice. Once the tumors were palpable, the mice were treated orally (36 mg/Kg) or injected subcutaneously with 24 mg/Kg of (R)-9b for 4 weeks. […] Further, RNA was isolated from the xenograft tumors and CDC20, CCNB1 and CCNB2 mRNA levels were examined.
All animal experiments were performed using the standards for humane care in accordance with the NIH Guide for the Care and Use of Laboratory Animals. […] Tumor volumes were measured twice a week using calipers. […]

MDA-MB-468 xenografts = assay: MDA-MB-468 xenograft in mammary fat pad; type: in vivo, female SCID mice
Protocol: To validate these findings in breast tumors, MDA-MB-468 cells were injected in female SCID mice. Once palpable tumors were formed (5 weeks), mice were treated with vehicle (6% captisol), palbociclib (80 mg/Kg of body weight), (R)-9b (36 mg/Kg of body weight) by oral route, or (R)-9b (24 mg/Kg of body weight) by subcutaneous injection, five times a week.
Fig. 7 ACK1 inhibitor overcomes palbociclib-resistant breast cancer growth and metastasis. A 3 × 10^6 MDA-MB-468 cells were injected in the 4th inguinal mammary fat pad of female SCID mice. Once the tumors were palpable, the mice were treated with either vehicle (Captisol; n = 7), Palbociclib at 80 mg/kg (n = 6), or (R)-9b at 36 mg/Kg (n = 6) orally. In addition, mice were injected with (R)-9b at 24 mg/Kg (n = 7) subcutaneously. Mice were treated five times a week, for 22 days. B, C The tumors were harvested and photographed, and the weights were recorded. D Vehicle or (R)-9b treated breast cancer cells were subjected to ChIP using pY88-H4 antibody, followed by qPCR for CXCR4 gene. E CXCR4 mRNA transcript levels in vehicle or (R)-9b treated MDA-MB-231 cells. 18S rRNA was used as housekeeping gene. F MDA-MB-231 cells were transfected with ACK1 or scrambled siRNA, followed by qRT-PCR to determine CXCR4 mRNA transcript levels. G Representative lung metastatic deposits of MDA-MB-231 cells injected via the tail veins in female SCID mice, treated with either vehicle or 24 mg/Kg (R)-9b orally. H Graphical quantitation of lung metastatic deposit. I and J 5 × 10^5 luciferase expressing 4T1 cells were injected into 4th inguinal mammary fat pad of female BALB/c mice. Once the tumors were palpable, mice were treated with either vehicle or (R)-9b at 24 mg/Kg (n = 3, each) subcutaneously for 2 weeks, five times a week. The metastases were assessed using IVIS. Data are represented as the mean ± SEM. *p < 0.05; **p < 0.01; ***p < 0.001. For (A, C–F, I), p values were calculated using unpaired two-tailed Student’s t test.
All animal experiments were performed using the standards for humane care in accordance with the NIH Guide for the Care and Use of Laboratory Animals. Mice were obtained from Charles River Laboratories and experiments were performed according to IACUC protocols (IACUC # 20180259) approved in writing by Washington University in St. Louis Department of Comparative Medicine (DCM). 1.5 × 10^6 Cal-148 or MCF7, or 3 × 10^6 MDA-MB-468 cells were suspended in 200 µl of PBS with 50% matrigel (BD Biosciences) and were implanted subcutaneously into the mammary fat pad (between fourth and fifth inguinal) of female SCID C.B17 mice (n = 8 per group). Once the tumors were palpable (about 4–5 weeks), mice were randomly chosen for subcutaneous injection (Cal-148 and MCF7; 24 mg/Kg body weight) or given oral gavage with (R)-9b (MCF7; 36 mg/Kg body weight) resuspended in 6% Captisol (or 6% Captisol in PBS as vehicle), five times a week, for 4–5 weeks. Tumor volumes were measured twice a week using calipers. At the end of the study, all mice were humanely euthanized, tumors extracted and weighed.

[1] = test system: luciferase expressing 4T1 cells; assay: orthotopic lung metastasis study; type: in vivo, female Balb/c mice; conditions: 24 mg/kg subcutaneously, 2 weeks
Protocol: In addition, we performed fluorescent imaging on mice orthotopically injected with luciferase expressing 4T1 cells (5 × 10^5). Two weeks after inoculation into the mammary fat pads, mice were subcutaneously injected with vehicle (6% Captisol) or (R)-9b (24 mg/kg) five times a week for 2 weeks. Mice were then administered an intraperitoneal injection of D-luciferin, lungs were excised and imaged for metastases.
Female Balb/c mice were orthotopically injected with luciferase expressing 4T1 cells (5 × 10^5). Two weeks after inoculation into the 5th mammary fat pads, mice were subcutaneously injected with vehicle (6% captisol) or (R)-9b (24 mg/Kg) five times a week, for 2 weeks. Mice were then intraperitoneally injected with D-luciferin, humanely euthanized, lungs were excised and assessed for metastases using both fluorescent in vivo imaging system and H&E staining.

CN1CCN(c2ccc(Nc3ncc(Cl)c(NC[C@H]4CCCO4)n3)cc2)CC1 [(R)-9b] was tested, and the “CDC20, CCNB1 and CCNB2 mRNA levels in tumors” value (MCF7 xenografts) was “significant reduction”, the “CDC20, CCNB1 and CCNB2 protein levels in tumor lysates” value (MCF7 xenografts) was “marked decrease” and the xenograft tumor growth (MCF7 xenografts; 4 weeks) was “significant loss of tumor growth”. The tumor weights (MDA-MB-468 xenografts; (R)-9b 36 mg/Kg oral or 24 mg/Kg subcutaneous, end of experiment) was “significant reduction in tumor weights”, the xenograft tumor growth (MDA-MB-468 xenografts; palbociclib 80 mg/Kg oral, (R)-9b 36 mg/Kg oral or 24 mg/Kg subcutaneous, five times a week, 3 weeks) was “compromised tumors growth” and the “weights of the mice” value (MDA-MB-468 xenografts; palbociclib 80 mg/Kg, (R)-9b 36 mg/Kg oral or 24 mg/Kg subcutaneous) was “did not exhibit significant loss of weight”. For the same compound, the “histology (H&E) of heart, spleen, kidneys and livers” value (MDA-MB-468 xenografts; palbociclib 80 mg/Kg, (R)-9b oral and subcutaneous) was “did not reveal histological abnormalities”, the “lung tumor nodules (H&E)” value [1] was “absent” and the “lung luminescence (photons/sec)” value ([1]; five times a week) was “significant decrease”.
